Experimental data as given in PubChem BioAssay AID1963961 (Molecular Pharmacology Branch, DTP, NCI, 2024).
pIC50: −log10 of the molar value.

System: K98450-129-R-PDC multicell spheroids, viability
Assay: Anticancer human tumor K98450-129-R-PDC patient-derived colon adenocarcinoma cell line growth inhibition [PI3K]
Conditions: for pIC50: curve of first compound; for viability, T/C: stronger effect = lower value; active = viability on the fitted dose curve at most 10% of control; inactive = the rest
Description: Combinatorial screen of targeted agents with the PI3K inhibitors inavolisib, alpelisib, duvelisib, and copanlisib in multi-cell type tumor spheroids
A high-throughput screen of multi-cell type tumor spheroids was designed to identify active combinations of targeted small molecules and PI3K pathway inhibitors. Complex spheroids include a stromal component modeled by human endothelial cells (HUVEC) and fibroblasts modeled by human mesenchymal stem cells (MSCs). The concentration ranges selected for each drug and investigational agent were based upon clinically achievable concentrations if the clinical Cmax of the agent was known.
Compounds. The drugs and investigational agents: inavolisib (NSC800729), alpelisib (NSC765974), duvelisib (NSC772469), copanlisib (NSC816437), ipatasertib (NSC767898), afuresertib (NSC778305), talazoparib (NSC767125), sapanisertib (NSC764658), selumetinib (NSC741078), tovorafenib (DAY101, NSC766906), vemurafenib (NSC761431), ravoxertinib (NSC781343), sotorasib (NSC818433), MRTX1133 (NSC 836407), abemaciclib (NSC 768073), palbociclib (NSC758247), venetoclax (NSC 766270), SY5609 (NSC837396), enzalutamide (NSC755605), and darolutamide (NSC825331), were obtained from the National Cancer Institute (NCI) Developmental Therapeutics Program Chemical Repository. The FDA-approved anticancer drug set is available from the NCI Developmental Therapeutics Program. […] The stock solutions were prepared in dimethyl sulfoxide (DMSO, Sigma-Aldrich, St. Louis, MO, cat. D2650) at 800-fold the tested concentration and stored at -70 degrees C prior to their use. All drugs and investigational agents were tested over a range starting from a high concentration at or near the clinical Cmax and decreasing in half-log increments. If the clinical Cmax for an agent had not been determined, the highest concentration tested was 10 microM.
Cell Culture. All cells were maintained in an incubator at 37 degrees C and 5% CO2 with 95% humidity. The PDC lines were cultured according to standard operating procedures established by the NCI PDMR (https://pdmr.cancer.gov/sops/default.htm). All PDCs were thawed and cultured in Matrigel-coated flasks prepared with a working solution of 1X Ham's F-12 nutrient mix, without supplementation (Invitrogen, Waltham, MA, cat. 11765054), 100 U/mL penicillin-streptomycin (Invitrogen, cat. 15140122), and 2.5% Matrigel (Corning Inc., Corning, NY, cat. 354248) for the first three passages. The 354836-022-R-J1-PDC, 475296-252-R-J1-PDC, and 997726-040-R-J2-PDC lines were cultured in 6A media, which includes advanced DMEM/F-12 (Thermo Fisher Scientific, cat. 12634028), 10 mM HEPES (Thermo Fisher Scientific, cat. 15630080), 1X GlutaMAX supplement (Thermo Fisher Scientific, cat. 35050061), 0.1 mg/mL primocin (InvivoGen, San Diego, CA, cat. ant-pm-2), 10% defined fetal bovine serum, heat inactivated (HyClone Laboratories Inc., Logan, UT, cat. SH30070.03HI), 50% L-WRN conditioned media (ATCC, cat. CRL-3276), 1.25 mM N-Acetyl-L-cysteine (Sigma-Aldrich, cat. A9165), 10 mM nicotinamide (Sigma-Aldrich, cat. N0636), 1X B-27 supplement (Thermo Fisher Scientific, cat. 17504044), 1X N-2 supplement (Thermo Fisher Scientific, cat. 17502048), and 10 microM Y-27632 dihydrochloride (Tocris Bioscience, Bristol, United Kingdom, cat. 1254). The 624824-186-R-J2-PDC line was cultured in 6C/Colon 1B media, which includes all 6A media components plus 50 ng/mL human EGF recombinant protein (Thermo Fisher Scientific, cat. PHG0311). […]

[1] = second compound 0.00316 µM, first compound 0.0316 µM
[2] = second compound 0.00316 µM, first compound 0.1 µM
[3] = second compound 0.01 µM, first compound 0.0316 µM
[4] = second compound 0.01 µM, first compound 0.1 µM
[5] = second compound 0.0316 µM, first compound 0.0316 µM
[6] = second compound 0.0316 µM, first compound 0.1 µM
[7] = second compound 0.1 µM, first compound 0.0316 µM
[8] = second compound 0.1 µM, first compound 0.1 µM
[9] = second compound 0.316 µM, first compound 0.0316 µM
[10] = second compound 0.316 µM, first compound 0.1 µM
[11] = second compound 1 µM, first compound 0.0316 µM
[12] = second compound 1 µM, first compound 0.1 µM
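Note: spheroids exposed to agents for seven days before read-out.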

CC(C)n1nc(-c2ccc3oc(N)nc3c2)c2c(N)ncnc21 + CC(Nc1ccc2c(c1)OCCn1cc(N3C(=O)OCC3C(F)F)nc1-2)C(N)=O
< 7.00: pIC50 (second compound 0.00316 µM) | pIC50 (second compound 0.01 µM) | pIC50 (second compound 0.0316 µM) | pIC50 (second compound 0.1 µM) | pIC50 (second compound 0.316 µM) | pIC50 (second compound 1 µM)
inactive: viability, T/C (second compound 0.00316 µM, first compound 0.000316 µM) 106% | viability, T/C (second compound 0.00316 µM, first compound 0.001 µM) 93.9% | viability, T/C (second compound 0.00316 µM, first compound 0.00316 µM) 97.1% | viability, T/C (second compound 0.00316 µM, first compound 0.01 µM) 94.7% | viability, T/C [1] 90.3% | viability, T/C [2] 78.8% | viability, T/C (second compound 0.01 µM, first compound 0.000316 µM) 115% | viability, T/C (second compound 0.01 µM, first compound 0.001 µM) 100% | viability, T/C (second compound 0.01 µM, first compound 0.00316 µM) 103% | viability, T/C (second compound 0.01 µM, first compound 0.01 µM) 91.1% | viability, T/C [3] 96.1% | viability, T/C [4] 77.2% | viability, T/C (second compound 0.0316 µM, first compound 0.000316 µM) 99% | viability, T/C (second compound 0.0316 µM, first compound 0.001 µM) 98.9% | viability, T/C (second compound 0.0316 µM, first compound 0.00316 µM) 99.4% | viability, T/C (second compound 0.0316 µM, first compound 0.01 µM) 94.5% | viability, T/C [5] 96.5% | viability, T/C [6] 74% | viability, T/C (second compound 0.1 µM, first compound 0.000316 µM) 100% | viability, T/C (second compound 0.1 µM, first compound 0.001 µM) 102% | viability, T/C (second compound 0.1 µM, first compound 0.00316 µM) 95.4% | viability, T/C (second compound 0.1 µM, first compound 0.01 µM) 91.3% | viability, T/C [7] 93.1% | viability, T/C [8] 71.5% | viability, T/C (second compound 0.316 µM, first compound 0.000316 µM) 93.1% | viability, T/C (second compound 0.316 µM, first compound 0.001 µM) 93.2% | viability, T/C (second compound 0.316 µM, first compound 0.00316 µM) 99.7% | viability, T/C (second compound 0.316 µM, first compound 0.01 µM) 88.2% | viability, T/C [9] 79.1% | viability, T/C [10] 77.7% | viability, T/C (second compound 1 µM, first compound 0.000316 µM) 87.2% | viability, T/C (second compound 1 µM, first compound 0.001 µM) 89.7% | viability, T/C (second compound 1 µM, first compound 0.00316 µM) 81.3% | viability, T/C (second compound 1 µM, first compound 0.01 µM) 82.2% | viability, T/C [11] 80.9% | viability, T/C [12] 67.1%

C=CC(=O)N1CCN(c2nc(=O)n(-c3c(C)ccnc3C(C)C)c3nc(-c4c(O)cccc4F)c(F)cc23)C(C)C1 (centres undefined) + COc1c(OCCCN2CCOCC2)ccc2c3n(c(=NC(=O)c4cnc(N)nc4)nc12)CCN3
5.53: pIC50 (second compound 0.0316 µM)
5.30: pIC50 (second compound 0.01 µM)
5.56: pIC50 (second compound 0.00316 µM)
6.16: pIC50 (second compound 0.1 µM)
6.26: pIC50 (second compound 0.316 µM)
6.78: pIC50 (second compound 1 µM)
inactive: viability, T/C [1] 98.1% | viability, T/C [2] 95.5% | viability, T/C (second compound 0.00316 µM, first compound 0.316 µM) 97.4% | viability, T/C (second compound 0.00316 µM, first compound 1 µM) 82.1% | viability, T/C (second compound 0.00316 µM, first compound 3.16 µM) 45.7% | viability, T/C (second compound 0.00316 µM, first compound 10 µM) 44.7% | viability, T/C [3] 103% | viability, T/C [4] 82.8% | viability, T/C (second compound 0.01 µM, first compound 0.316 µM) 89.3% | viability, T/C (second compound 0.01 µM, first compound 1 µM) 63% | viability, T/C (second compound 0.01 µM, first compound 3.16 µM) 57.1% | viability, T/C (second compound 0.01 µM, first compound 10 µM) 41.4% | viability, T/C [5] 116% | viability, T/C [6] 99.6% | viability, T/C (second compound 0.0316 µM, first compound 0.316 µM) 73.8% | viability, T/C (second compound 0.0316 µM, first compound 1 µM) 76.2% | viability, T/C (second compound 0.0316 µM, first compound 3.16 µM) 48.6% | viability, T/C (second compound 0.0316 µM, first compound 10 µM) 29.4% | viability, T/C [7] 71.9% | viability, T/C [8] 91.2% | viability, T/C (second compound 0.1 µM, first compound 0.316 µM) 61.1% | viability, T/C (second compound 0.1 µM, first compound 1 µM) 44.9% | viability, T/C (second compound 0.1 µM, first compound 3.16 µM) 41.9% | viability, T/C (second compound 0.1 µM, first compound 10 µM) 28.3% | viability, T/C [9] 67.7% | viability, T/C [10] 59.5% | viability, T/C (second compound 0.316 µM, first compound 0.316 µM) 66% | viability, T/C (second compound 0.316 µM, first compound 1 µM) 34.8% | viability, T/C (second compound 0.316 µM, first compound 3.16 µM) 19.5% | viability, T/C (second compound 0.316 µM, first compound 10 µM) 16.3% | viability, T/C [11] 50.8% | viability, T/C [12] 61.1% | viability, T/C (second compound 1 µM, first compound 0.316 µM) 42.2% | viability, T/C (second compound 1 µM, first compound 1 µM) 22.6% | viability, T/C (second compound 1 µM, first compound 3.16 µM) 15.1% | viability, T/C (second compound 1 µM, first compound 10 µM) 14.2%
